Assay results: patent publication US9334238B2, “N-substituted pyridinylidenes for combating animal pests” (BASF SE, priority 2012, dated 2016)

Assays:
Type in all cases: in vivo
[1] = system: Orchid thrips (dichromothrips corbetti); experiment: Orchid thrips floral-immersion test; settings: orchid flowers dipped, adult thrips, 72 hours after treatment, read-out: mortality in comparison with untreated controls
Procedure: B.4 Orchid thrips (dichromothrips corbetti)
Dichromothrips corbetti adults used for bioassay were obtained from a colony maintained continuously under laboratory conditions. For testing purposes, the test compound was diluted in a 1:1 mixture of acetone:water (vol:vol), plus 0.01% vol/vol Alkamuls® EL 620 surfactant.
Thrips potency of each compound was evaluated by using a floral-immersion technique. Plastic petri dishes were used as test arenas. All petals of individual, intact orchid flowers were dipped into treatment solution and allowed to dry. Treated flowers were placed into individual petri dishes along with about 20 adult thrips. The petri dishes were then covered with lids. All test arenas were held under continuous light and a temperature of about 28° C. for duration of the assay. After 3 days, the numbers of live thrips were counted on each flower, and along inner walls of each petri dish. The percent mortality was recorded 72 hours after treatment.

[2] = system: green peach aphid (Myzus persicae); experiment: Green peach aphid systemic test, artificial diet in 96-well microtiter plates; settings: 72 h, 2500 ppm in aphid diet, adult aphids, 3 days, read-out: mortality in comparison with untreated controls
Excerpt: B.1 Green Peach Aphid (Myzus persicae)
For evaluating control of green peach aphid (Myzus persicae) through systemic means, the test unit consisted of 96-well-microtiter plates containing liquid artificial diet under an artificial membrane.
The compounds were formulated using a solution containing 75% v/v water and 25% v/v DMSO. Different concentrations of formulated compounds were pipetted into the aphid diet, using a custom built pipetter, at two replications.
After application, 5-8 adult aphids were placed on the artificial membrane inside the microtiter plate wells. The aphids were then allowed to suck on the treated aphid diet and incubated at about 23±1° C. and about 50±5% relative humidity for 3 days. Aphid mortality and fecundity was then visually assessed.

[3] = system: Cowpea Aphid (Aphis craccivora); experiment: Cowpea aphid test, sprayed potted cowpea plants; settings: 500 ppm spray on infested cowpea plants, after 72 hours, read-out: mortality in comparison with untreated controls
Procedure: B.2 Cowpea Aphid (Aphis craccivora)
The active compound was dissolved at the desired concentration in a mixture of 1:1 (vol:vol) distilled water: acetone. Surfactant (Alkamuls® EL 620) was added at a rate of 0.1% (vol/vol). The test solution was prepared at the day of use.
Potted cowpea plants were colonized with approximately 50-100 aphids of various stages by manually transferring a leaf tissue cut from infested plant 24 hours before application. Plants were sprayed after the pest population has been recorded. Treated plants were maintained on light carts at about 28° C. Percent mortality was assessed after 72 hours.

[4] = system: vetch aphid (Megoura viciae); experiment: Vetch aphid contact/systemic test, broad bean leaf disks; settings: foliar, 120 h, 2500 ppm sprayed onto leaf disks, adult aphids, 5 days, read-out: mortality in comparison with untreated controls
Procedure: B.3 Vetch Aphid (Megoura viciae)
For evaluating control of vetch aphid (Megoura viciae) through contact or systemic means the test unit consisted of 24-well-microtiter plates containing broad bean leaf disks.
The compounds were formulated using a solution containing 75% v/v water and 25% v/v DMSO. Different concentrations of formulated compounds were sprayed onto the leaf disks at 2.5 μl, using a custom built micro atomizer, at two replications.
After application, the leaf disks were air-dried and 5-8 adult aphids placed on the leaf disks inside the microtiter plate wells. The aphids were then allowed to suck on the treated leaf disks and incubated at about 23±1° C. and about 50±5% relative humidity for 5 days. Aphid mortality and fecundity was then visually assessed.

[5] = system: Rice Green Leafhopper (Nephotettix virescens); experiment: Rice green leafhopper test, sprayed rice seedlings; settings: 500 ppm spray on rice seedlings, adults, after 72 hours, read-out: mortality in comparison with untreated controls
Procedure: B.5 Rice Green Leafhopper (Nephotettix virescens)
(§1) Rice seedlings were cleaned and washed 24 hours before spraying. The active compounds were formulated in 50:50 acetone:water (vol:vol), and 0.1% vol/vol surfactant (EL 620) wss added. Potted rice seedlings were sprayed with 5 ml test solution, air dried, placed in cages and inoculated with 10 adults. Treated rice plants were kept at about 28-29° C. and relative humidity of about 50-60%. Percent mortality was recorded after 72 hours.

[6] = system: Rice Brown Plant Hopper (Nilaparvata lugens); experiment: Rice brown plant hopper test, sprayed rice seedlings; settings: 500 ppm spray on rice seedlings, adults, after 72 hours, read-out: mortality in comparison with untreated controls
Procedure: B.6 Rice Brown Plant Hopper (Nilaparvata lugens)
as §1, with “compounds was” for “compounds were”, “acetone:water (vol:vol)” for “acetone:water (vol:vol),”, “620) was” for “620) wss”

[7] = system: Mediterranean fruitfly (Ceratitis capitata); experiment: Mediterranean fruitfly test, insect diet with eggs in microtiter plates; settings: 120 h, 2500 ppm sprayed onto insect diet, egg and larval mortality, 5 days, read-out: mortality in comparison with untreated controls
Procedure: B.7 Mediterranean Fruitfly (Ceratitis capitata)
For evaluating control of Mediterranean fruitfly (Ceratitis capitata) the test unit consists of microtiter plates containing an insect diet and 50-80 C. capitata eggs.
The compounds were formulated using a solution containing 75% v/v water and 25% v/v DMSO. Different concentrations of formulated compounds were sprayed onto the insect diet at 5 μl, using a custom built micro atomizer, at two replications.
After application, microtiter plates were incubated at about 28±1° C. and about 80±5% relative humidity for 5 days. Egg and larval mortality was then visually assessed.

O=C(/C=C1\C=CC=CN1Cc1ccc(Cl)nc1)C(F)(F)F [E-1, (3E)-3-[1-[(6-chloro-3-pyridyl)methyl]-2-pyridylidene]-1,1,1-trifluoro-propan-2-one]
≥ 75%: mortality at 500 ppm [1] | mortality at 2500 ppm [2] | mortality at 500 ppm [3] | mortality at 2500 ppm [4] | mortality at 500 ppm [5] | mortality at 500 ppm [6] | mortality at 2500 ppm [7]
